The results in this text go back to ChEMBL document CHEMBL1201862, “PubChem BioAssay data set” (2004).

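Step 1: Grow cells in 96-well plates. Step 2: Expose to compound for 48 hours at 5 concentrations. Step 3: Interpolate endpoints linearly; if unreached, use highest concentration. GI50 marks 50% less growth.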 Calls of active or inactive are those of the source. Cut-off read from the data, not from the text of the source: active = GI50 up to about 1.1 µM and inactive = higher. A value given as a limit tells only on which side of the number the result lay.

Some test systems named below: UACC-257; MOLT-4; NCI-H226; SK-MEL-28; SK-MEL-2; SN12C; HCC 2998; HOP-62; SF-268; IGROV-1; SF-295; SK-MEL-5; NCI-H460; ACHN; HL-60; U-251; HCT-116; SR.
Holding throughout (test): NCI anticancer screen, dose series, 48 h

For `CC1(c2ccccc2Cl)C(C#N)C(=O)NC(=O)C1C#N` (stereo not drawn), the GI50 with UACC-257 is 30.5 µM (inactive); in the assay with MOLT-4, 31.2 µM (inactive); with NCI-H226 it was 27.5 µM (inactive); with SK-MEL-28, 37.8 µM (inactive); in the assay with SK-MEL-2, 49.9 µM (inactive); in the assay with SN12C, 28.7 µM (inactive). Further, the GI50 was 41.3 µM (inactive) in the assay with HCC 2998; 30.6 µM (inactive) in the assay on HOP-62; 35.8 µM (inactive) with SF-268; 64.1 µM (inactive) with IGROV-1; 32.7 µM (inactive) in the assay with SF-295; 25.8 µM (inactive) in the assay with SK-MEL-5. In addition, the GI50 in the assay with NCI-H460 was 36.6 µM (inactive); with ACHN, 34.8 µM (inactive); in the assay with HL-60 it was 21.6 µM (inactive).
For `CC1(Br)C(=O)NC(=O)N(C2CC(N=[N+]=[N-])C(CO)O2)C1N=[N+]=[N-]` (stereo not drawn), the GI50 in the assay on U-251, in the assay with UACC-257, with MOLT-4, with SK-MEL-28, in the assay on SK-MEL-2 and in the assay on SN12C was > 100 µM (inactive) each time. For the same molecule, the GI50 in the assay with HCC 2998, with HOP-62, in the assay on SF-268, with IGROV-1, in the assay with SF-295 and in the assay with SK-MEL-5 was > 100 µM (inactive) in each case. Besides, the GI50 with NCI-H460, with ACHN and with HL-60 was > 100 µM (inactive) in each case.
In the case of `CSc1snc2sc3c(Cl)nnnc3c12`, the GI50 in the assay on U-251 was 15.1 µM (inactive); in the assay on UACC-257, 12.8 µM (inactive); with MOLT-4, 2.98 µM (inactive); in the assay on SK-MEL-28, 10.6 µM (inactive); with SK-MEL-2, 12.6 µM (inactive); with SN12C, 15.3 µM (inactive). Moreover, the GI50 in the assay on HCC 2998 was 6.01 µM (inactive); in the assay on HOP-62, 16.1 µM (inactive); in the assay on SF-268 it was 16.9 µM (inactive); in the assay on HCT-116, 16 µM (inactive); with IGROV-1, 18.3 µM (inactive); with SF-295 it was 18 µM (inactive). For the same molecule, the GI50 in the assay on SK-MEL-5 was 16.7 µM (inactive); in the assay with NCI-H460, 15.8 µM (inactive); with ACHN, 11.1 µM (inactive).
As to `O=C(COC(=O)c1cccc2c(=O)c3ccccc3[nH]c12)Nc1ccc(S(=O)(=O)Nc2ncccn2)cc1`, the GI50 in the assay with U-251 is 24.3 µM (inactive); with UACC-257 it was 66.1 µM (inactive); in the assay with SR, 29 µM (inactive); in the assay with MOLT-4, 28.4 µM (inactive); in the assay on NCI-H226, > 100 µM (inactive); in the assay on SK-MEL-28, 32.9 µM (inactive). Moreover, the GI50 in the assay with SN12C is 59.6 µM (inactive); with HCC 2998 it was 38.8 µM (inactive); in the assay on HOP-62, 41.6 µM (inactive); with SF-268 it was 37 µM (inactive); in the assay with HCT-116, 39.6 µM (inactive); with IGROV-1, 39.8 µM (inactive). Further, the GI50 was 58.9 µM (inactive) with SF-295; 82 µM (inactive) in the assay with SK-MEL-5; > 100 µM (inactive) with NCI-H460; 36.8 µM (inactive) in the assay on ACHN; 30.9 µM (inactive) with HL-60.
With `C=CCC(C(=O)OC)C1(C(=O)OC)c2[nH]c3ccccc3c2CCN1Cc1ccccc1` (stereo not drawn), the GI50 in the assay with U-251 was 64.4 µM (inactive); with SR, 6.68 µM (inactive); in the assay with MOLT-4, > 100 µM (inactive); in the assay on SK-MEL-28, > 100 µM (inactive); in the assay on SK-MEL-2 it was > 100 µM (inactive); in the assay with SN12C, > 100 µM (inactive). For the same molecule, the GI50 was > 100 µM (inactive) in the assay on HCC 2998; > 100 µM (inactive) in the assay on HOP-62; > 100 µM (inactive) in the assay on SF-268; 69.5 µM (inactive) in the assay on HCT-116; > 100 µM (inactive) in the assay with IGROV-1; 35.1 µM (inactive) in the assay on SF-295. Besides, the results for the GI50 in the assay on SK-MEL-5 and in the assay with HL-60 were 85.5 µM (inactive) and 18.2 µM (inactive), respectively.
Turning to `COc1ccc(/C=c2/sc3n(c2=O)NC2(CCC(C)CC2)NN=3)cc1` (stereo not drawn), the GI50 in the assay on U-251, with SR, in the assay on MOLT-4, in the assay on NCI-H226, in the assay with SK-MEL-28 and in the assay on SK-MEL-2 was > 100 µM (inactive) each time. In addition, the GI50 in the assay with SN12C, in the assay with HCC 2998, in the assay with HOP-62, in the assay with SF-268, with HCT-116 and in the assay with IGROV-1 was > 100 µM (inactive) each time. The GI50 is > 100 µM (inactive) in the assay on SF-295, 49.7 µM (inactive) in the assay on SK-MEL-5, > 100 µM (inactive) in the assay on NCI-H460 and > 100 µM (inactive) with ACHN.
`COc1ccc([Se]c2ccc(OC)cc2OC)c(OC)c1`: the GI50 in the assay on U-251 was 21.6 µM (inactive); with UACC-257, 61.2 µM (inactive); in the assay on SR, 6.22 µM (inactive); in the assay with MOLT-4 it was 5.36 µM (inactive); with NCI-H226 it was 20 µM (inactive); in the assay on SK-MEL-28, 15.8 µM (inactive). Further, the GI50 in the assay on SK-MEL-2 is 17.5 µM (inactive); in the assay with SN12C it was 36.4 µM (inactive); in the assay with SF-268, 35.6 µM (inactive); with HCT-116, 12.1 µM (inactive); with IGROV-1, 5.37 µM (inactive); in the assay with SF-295 it was 8.57 µM (inactive). Moreover, the GI50 in the assay with SK-MEL-5 is 22.2 µM (inactive); in the assay on NCI-H460 it was 19.6 µM (inactive); in the assay on ACHN, 45.3 µM (inactive); with HL-60, 5.38 µM (inactive).
As to `C=CC1=C(C)c2cc3[nH]c(cc4nc(cc5[nH]c(cc1n2)c(C)c5CCC(=O)N(CC)CC)C(CCC(=O)N(CC)CC)=C4C)c(C)c3C=C`, the GI50 with U-251, with UACC-257, in the assay on SR, in the assay on MOLT-4, in the assay on SK-MEL-28 and in the assay with SK-MEL-2 was > 100 µM (inactive) in each case. In addition, the GI50 in the assay on SN12C was > 100 µM (inactive); with HCC 2998, > 100 µM (inactive); in the assay on HOP-62, > 100 µM (inactive); in the assay with HCT-116, > 100 µM (inactive); with IGROV-1, > 100 µM (inactive); in the assay with SF-295, 61.2 µM (inactive). Moreover, the GI50 with SK-MEL-5, in the assay with NCI-H460, with ACHN and in the assay with HL-60 was > 100 µM (inactive) each time.
For `Cc1ccc(-c2cc(-c3ccco3)c(C#N)c(=O)n2C2OC(OC(=O)c3ccccc3)C(OC(=O)c3ccccc3)C2OC(=O)c2ccccc2)cc1` (stereo not drawn), the GI50 was 0.925 µM (active) with U-251; > 100 µM (inactive) in the assay on SR; > 100 µM (inactive) in the assay with MOLT-4; > 100 µM (inactive) with SK-MEL-28; > 100 µM (inactive) in the assay with SK-MEL-2; > 100 µM (inactive) in the assay on SN12C. Moreover, the GI50 was > 100 µM (inactive) in the assay on HCC 2998; 43 µM (inactive) in the assay with HOP-62; 81.3 µM (inactive) in the assay on SF-268; 32.1 µM (inactive) with HCT-116; 42.8 µM (inactive) in the assay on IGROV-1; 59 µM (inactive) in the assay on SF-295. Besides, the GI50 in the assay on NCI-H460 and in the assay on ACHN was > 100 µM (inactive) throughout.
Consider `O=C1OCC(C(=O)c2cccc(O)c2)C1=O` (stereo not drawn), for which the GI50 with U-251, in the assay with UACC-257, in the assay on NCI-H226, with SK-MEL-28, in the assay with SN12C and in the assay with HCC 2998 was > 100 µM (inactive) each time. The GI50 in the assay with HOP-62, in the assay on SF-268, in the assay on HCT-116, with IGROV-1, in the assay with SF-295 and in the assay with SK-MEL-5 was > 100 µM (inactive) in each case. For the same molecule, the GI50 in the assay on NCI-H460 and in the assay with ACHN was > 100 µM (inactive) each time.
As for `CCC1(N=[N+]=[N-])C(=O)c2ccccc2N(C)C1=O` (stereo not drawn), the GI50 with U-251, in the assay on UACC-257, in the assay on SR, in the assay with MOLT-4, with SK-MEL-28 and in the assay with SK-MEL-2 was > 100 µM (inactive) each time. Besides, the GI50 in the assay with SN12C, in the assay with HCC 2998, in the assay on HOP-62, in the assay on SF-268, with HCT-116 and in the assay with IGROV-1 was > 100 µM (inactive) each time. The GI50 in the assay with SF-295, in the assay on SK-MEL-5, in the assay with NCI-H460, in the assay on ACHN and in the assay with HL-60 was > 100 µM (inactive) in each case.
For `Cc1ccc(S(=O)(=O)N(/N=C/C=C/c2ccccc2)c2nnc(-c3ccccc3)c(-c3ccccc3)n2)cc1`, the GI50 with U-251 was 32.1 µM (inactive); with UACC-257, 13.3 µM (inactive); in the assay with MOLT-4 it was 12.9 µM (inactive); with NCI-H226, 18.3 µM (inactive); in the assay with SK-MEL-28, 26.3 µM (inactive); with SK-MEL-2 it was 17 µM (inactive). The GI50 with SN12C is 38.4 µM (inactive); in the assay with HCC 2998 it was 13.3 µM (inactive); in the assay on HOP-62, 18.3 µM (inactive); in the assay on SF-268, 25.9 µM (inactive); with IGROV-1, 34.6 µM (inactive); with SF-295 it was 19 µM (inactive). Moreover, the GI50 in the assay on SK-MEL-5 was 14.9 µM (inactive); in the assay on NCI-H460, 21.7 µM (inactive); with ACHN, 29.8 µM (inactive); in the assay on HL-60 it was 14.9 µM (inactive).
For `O=C1NC(=O)C(C(=O)C(=O)Nc2ccc(Cl)cc2Cl)C(=O)N1`, the GI50 in the assay on U-251, with UACC-257, in the assay with MOLT-4, in the assay on SK-MEL-2, in the assay with HCC 2998 and with HOP-62 was > 100 µM (inactive) throughout. Moreover, the GI50 in the assay on HCT-116, with IGROV-1, in the assay with SF-295, in the assay with SK-MEL-5, in the assay with NCI-H460 and in the assay with ACHN was > 100 µM (inactive) each time. Further, the GI50 in the assay with HL-60 is > 100 µM (inactive).
